Source: patent US7989625B2, “Thienopyridines” (Merck Patent GmbH, priority 2005, dated 2011)

Target: T1, human HSP90α (Homo sapiens, UniProt P07900)
T1 construct: host or cells: E. coli
Assay: radioligand filter binding test, competition with [3H]17AAG for HSP90
Details: recombinant human HSP90α, [3H]17AAG 0.08 μM, 22° C., 30 min
From the text: The binding of geldanamycin or 17-allylamino-17-demethoxygeldanamycin (17AAG) to HSP90 and competitive inhibition thereof can be utilised in order to determine the inhibitory activity of the compounds according to the invention (Carreras et al. 2003, Chiosis et al. 2002).
In the specific case, a radioligand filter binding test is used. The radioligand used here is tritium-labelled 17-allylaminogeldanamycin, [3H]17AAG. This filter binding test allows a targeted search for inhibitors which interfere with the ATP binding site.
Recombinant human HSP90α (E. coli expressed, 95% purity); [3H]17AAG (17-allylaminogeldanamycin, [allylamino-2,3-^3H. Specific activity: 1.11×10^12 Bq/mmol (Moravek, MT-1717);
HEPES filter buffer (50 mM HEPES, pH 7.0, 5 mM MgCl2, BSA 0.01%) Multiscreen FB (1 μm) filter plate (Millipore, MAFBNOB 50).
The 96-well microtitre filter plates are firstly irrigated and coated with 0.1% of polyethylenimine.
The test is carried out under the following conditions: • Reaction temperature 22° C. • Reaction time: 30 min., shaking at 800 rpm • Test volume: 50 μl • Final Concentrations: • 50 mM HEPES HCl, pH 7.0, 5 mM MgCl2, 0.01% (w/v) BSA • HSP90:1.5 μg/assay • [3H]17AAG: 0.08 μM.
At the end of the reaction, the supernatant in the filter plate is removed by suction with the aid of a vacuum manifold (Multiscreen Separation System, Millipore), and the filter is washed twice.
The filter plates are then measured in a beta counter (Microbeta, Wallac) with scintillator (Microscint 20, Packard).
“% of control” is determined from the “counts per minutes” values and the IC-50 value of a compound is calculated therefrom.

| IC50 | Compound |
| --- | --- |
| 5.5 µM | COc1ccc(-c2c(C#N)c(N)nc3sc(C(N)=O)c(N)c23)cc1NC(=O)C(C)C [Compound A38, 2-aminocarbonyl-3,6-diamino-5-cyano-4-[4-methoxy-3-(prop-2-ylcarbonylamino)phenyl]thieno[2,3-b]pyridine] |
| 5.9 µM | COc1ccc(-c2c(C#N)c(N)nc3sc(C(N)=O)c(N)c23)cc1NC(=O)c1ccc(C(F)(F)F)cc1 [Compound A35, 2-aminocarbonyl-3,6-diamino-5-cyano-4-[4-methoxy-3-(4-trifluoromethylbenzoylamino)phenyl]thieno[2,3-b]pyridine] |
| 1.9 µM | COc1ccc(-c2c(C#N)c(N)nc3sc(C(N)=O)c(N)c23)cc1NC(=O)c1ccncc1 [Compound A37, 2-aminocarbonyl-3,6-diamino-5-cyano-4-[4-methoxy-3-(pyridin-4-ylcarbonylamino)phenyl]thieno[2,3-b]pyridine] |
| 11 µM | COc1ccc(-c2c(C#N)c(N)nc3sc(C(N)=O)c(N)c23)cc1NC(=O)c1ccccc1C(F)(F)F [Compound A36, 2-aminocarbonyl-3,6-diamino-5-cyano-4-[4-methoxy-3-(2-trifluoromethylbenzoylamino)phenyl]thieno[2,3-b]pyridine] |
